Results: ChEMBL document CHEMBL1201862, “PubChem BioAssay data set” (2004)
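Following 48 hours of exposure in 96-well plates, responses at five concentrations were used to interpolate endpoints linearly. Here, GI50 denotes the concentration required for 50% inhibition of growth.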 Calls of active or inactive are those of the source. Cut-off read from the data, not from the text of the source: active = GI50 up to about 1.1 µM and inactive = higher.

Experiments:
Assay in all cases: NCI-60 cell line screen, 48 h
NCI-H226 = system: NCI-H226
OVCAR-8 = system: OVCAR-8
HL-60 = system: HL-60
M14 = system: M14
NCI-H23 = system: NCI-H23
CAKI-1 = system: CAKI-1
SK-MEL-28 = system: SK-MEL-28
SF-268 = system: SF-268
HCT-116 = system: HCT-116
Malme-3M = system: Malme-3M
SF-539 = system: SF-539
HOP-92 = system: HOP-92
A498 = system: A498
HCC 2998 = system: HCC 2998
EKVX = system: EKVX
NCI-H522 = system: NCI-H522
HCT-15 = system: HCT-15
PC-3 = system: PC-3
NCI/ADR-RES = system: NCI/ADR-RES
MDA-MB-435 = system: MDA-MB-435

SMILES	GI50 (NCI-H226)	GI50 (OVCAR-8)	GI50 (HL-60)	GI50 (M14)	GI50 (NCI-H23)	GI50 (CAKI-1)	GI50 (SK-MEL-28)	GI50 (SF-268)	GI50 (HCT-116)	GI50 (Malme-3M)	GI50 (SF-539)	GI50 (HOP-92)	GI50 (A498)	GI50 (HCC 2998)	GI50 (EKVX)	GI50 (NCI-H522)	GI50 (HCT-15)	GI50 (PC-3)	GI50 (NCI/ADR-RES)	GI50 (MDA-MB-435)
COC1=CC(=O)OC(/C=C(C)/C=C/C2=C(C)CCCC2(C)C)C1 (stereo not given)	> 100 µM (inactive)	> 100 µM (inactive)	> 100 µM (inactive)	> 100 µM (inactive)	> 100 µM (inactive)	> 100 µM (inactive)	> 100 µM (inactive)	> 100 µM (inactive)	> 100 µM (inactive)	> 100 µM (inactive)	> 100 µM (inactive)	> 100 µM (inactive)	> 100 µM (inactive)	> 100 µM (inactive)	> 100 µM (inactive)	> 100 µM (inactive)	–	–	–	–
CC[As](CC)SCC1OC(OC(C)=O)C(OC(C)=O)C(OC(C)=O)C1OC(C)=O (stereo not given)	14.3 µM (inactive)	16 µM (inactive)	3.16 µM (inactive)	12.3 µM (inactive)	13.5 µM (inactive)	2.84 µM (inactive)	4.01 µM (inactive)	11.6 µM (inactive)	17.1 µM (inactive)	3.53 µM (inactive)	13.1 µM (inactive)	3.15 µM (inactive)	20.6 µM (inactive)	17.5 µM (inactive)	21.4 µM (inactive)	1.75 µM (inactive)	13.6 µM	–	–	–
CC(=O)NNc1nc(C)c(C(=O)/C=C/c2ccc(N(C)C)cc2)s1	> 100 µM (inactive)	> 100 µM (inactive)	> 100 µM (inactive)	–	> 100 µM (inactive)	> 100 µM (inactive)	> 100 µM (inactive)	> 100 µM (inactive)	–	> 100 µM (inactive)	> 100 µM (inactive)	> 100 µM (inactive)	> 100 µM (inactive)	> 100 µM (inactive)	> 100 µM (inactive)	> 100 µM (inactive)	> 100 µM	–	–	–
O=C1CCCC/C1=C/C=C/c1ccccc1	> 100 µM (inactive)	84.1 µM (inactive)	25.9 µM (inactive)	58.9 µM (inactive)	51.4 µM (inactive)	> 100 µM (inactive)	> 100 µM (inactive)	59.7 µM (inactive)	43.7 µM (inactive)	87.9 µM (inactive)	> 100 µM (inactive)	58.5 µM (inactive)	> 100 µM (inactive)	> 100 µM (inactive)	–	30.7 µM (inactive)	–	–	–	–
COC(=O)/C=C1/N=C(N(C)/N=C/c2ccccc2)NC1=O	–	> 100 µM (inactive)	> 100 µM (inactive)	> 100 µM (inactive)	> 100 µM (inactive)	> 100 µM (inactive)	> 100 µM (inactive)	> 100 µM (inactive)	> 100 µM (inactive)	> 100 µM (inactive)	> 100 µM (inactive)	–	–	> 100 µM (inactive)	> 100 µM (inactive)	> 100 µM (inactive)	> 100 µM	> 100 µM (inactive)	> 100 µM (inactive)	–
Nc1nc(NC2C=C(CO)C(O)C2O)c([N+](=O)[O-])c(=O)[nH]1 (stereo not given)	> 100 µM (inactive)	> 100 µM (inactive)	–	> 100 µM (inactive)	> 100 µM (inactive)	> 100 µM (inactive)	> 100 µM (inactive)	> 100 µM (inactive)	> 100 µM (inactive)	> 100 µM (inactive)	> 100 µM (inactive)	> 100 µM (inactive)	> 100 µM (inactive)	> 100 µM (inactive)	> 100 µM (inactive)	> 100 µM (inactive)	> 100 µM	–	–	–
O=c1c2ccccc2[nH]c2ccc3c(Cl)n[nH]c3c12	0.54 µM (active)	40.5 µM (inactive)	40.1 µM (inactive)	60.1 µM (inactive)	35.2 µM (inactive)	23.7 µM (inactive)	87.5 µM (inactive)	50.5 µM (inactive)	31.8 µM (inactive)	19.1 µM (inactive)	–	38.5 µM (inactive)	30.9 µM (inactive)	35.5 µM (inactive)	47.3 µM (inactive)	35 µM (inactive)	35.6 µM	–	–	–
CCN(CC)c1c(C(=O)/C=C/c2ccc(Cl)cc2)c(-c2ccccc2)nn(C)c1=O	2.05 µM (inactive)	1.64 µM (inactive)	1.19 µM (inactive)	2.08 µM (inactive)	1.68 µM (inactive)	3.56 µM (inactive)	1.62 µM (inactive)	1.7 µM (inactive)	1.67 µM (inactive)	2.22 µM (inactive)	–	1.63 µM (inactive)	2.03 µM (inactive)	1.85 µM (inactive)	2.07 µM (inactive)	1.59 µM (inactive)	1.69 µM	–	–	–
Cc1nc(C(N)=S)sc1C(=O)/C=C/c1c(O)ccc2ccccc12	> 100 µM (inactive)	68.5 µM (inactive)	22.1 µM (inactive)	> 100 µM (inactive)	> 67.5 µM (inactive)	> 87.5 µM (inactive)	> 71.6 µM (inactive)	28.5 µM (inactive)	80.2 µM (inactive)	> 90.2 µM (inactive)	70.1 µM (inactive)	> 74.1 µM (inactive)	> 100 µM (inactive)	> 100 µM (inactive)	> 100 µM (inactive)	26.9 µM (inactive)	> 95.9 µM	–	–	–
O=c1c2ccccc2nc(-c2cccc([N+](=O)[O-])c2)n1O	23.7 µM (inactive)	20.3 µM (inactive)	1.64 µM (inactive)	50.8 µM (inactive)	50 µM (inactive)	40.7 µM (inactive)	> 100 µM (inactive)	34.4 µM (inactive)	41.5 µM (inactive)	> 80 µM (inactive)	47.8 µM (inactive)	3.94 µM (inactive)	> 40.7 µM (inactive)	59.6 µM (inactive)	36.8 µM (inactive)	28.6 µM (inactive)	17.8 µM	–	23.3 µM (inactive)	41.5 µM (inactive)
COc1cc(C=O)c(-c2cc(OC)c(OC)cc2C=O)cc1OC	> 100 µM (inactive)	91.4 µM (inactive)	36.8 µM (inactive)	> 100 µM (inactive)	52.6 µM (inactive)	> 100 µM (inactive)	47.8 µM (inactive)	46.7 µM (inactive)	70.3 µM (inactive)	> 100 µM (inactive)	> 100 µM (inactive)	> 100 µM (inactive)	> 100 µM (inactive)	> 100 µM (inactive)	> 100 µM (inactive)	> 100 µM (inactive)	> 100 µM	–	–	–
Cc1ccc(C(=O)/C=C/c2ccccc2Cl)cc1	25.1 µM (inactive)	15.8 µM (inactive)	16.4 µM (inactive)	17.6 µM (inactive)	19 µM (inactive)	16.8 µM (inactive)	14.2 µM (inactive)	20.5 µM (inactive)	11.8 µM (inactive)	23.5 µM (inactive)	21.2 µM (inactive)	30.1 µM (inactive)	25.4 µM (inactive)	18.5 µM (inactive)	19.2 µM (inactive)	14 µM (inactive)	15 µM	–	–	–
CCOc1ccc(NC(=O)C(=O)CC(=O)C2=C(C)Nc3ccccc3S2)cc1	> 50 µM (inactive)	> 50 µM (inactive)	–	> 50 µM (inactive)	> 50 µM (inactive)	> 50 µM (inactive)	> 50 µM (inactive)	> 50 µM (inactive)	> 50 µM (inactive)	> 50 µM (inactive)	> 50 µM (inactive)	> 50 µM (inactive)	> 50 µM (inactive)	> 50 µM (inactive)	> 50 µM (inactive)	> 50 µM (inactive)	> 50 µM	–	–	–
CC(=O)OCC1OC(n2c(=O)n(-c3ccccc3)c(=O)c3ccccc32)C(OC(C)=O)C(OC(C)=O)C1OC(C)=O (stereo not given)	> 100 µM (inactive)	> 100 µM (inactive)	> 100 µM (inactive)	> 100 µM (inactive)	> 100 µM (inactive)	> 100 µM (inactive)	> 100 µM (inactive)	> 100 µM (inactive)	96.6 µM (inactive)	> 100 µM (inactive)	> 100 µM (inactive)	> 100 µM (inactive)	> 100 µM (inactive)	> 100 µM (inactive)	> 100 µM (inactive)	> 100 µM (inactive)	> 100 µM	–	–	–
CC(C)(C)C(=O)N1C(C(=O)O)Cc2ccccc2[C@@H]1Cc1ccccc1 (stereo not given in full)	45.6 µM (inactive)	> 100 µM (inactive)	> 100 µM (inactive)	> 100 µM (inactive)	> 100 µM (inactive)	> 100 µM (inactive)	> 100 µM (inactive)	> 100 µM (inactive)	> 100 µM (inactive)	> 100 µM (inactive)	> 100 µM (inactive)	> 100 µM (inactive)	> 100 µM (inactive)	> 100 µM (inactive)	> 100 µM (inactive)	> 100 µM (inactive)	> 100 µM	–	–	–
CCCCCCCCCCCCCCCCCCOCC(C[N+]1(C)CCC(O)CC1)OCC (stereo not given)	3.08 µM (inactive)	4.2 µM (inactive)	1.79 µM (inactive)	9.51 µM (inactive)	2.88 µM (inactive)	5.65 µM (inactive)	12.7 µM (inactive)	3.39 µM (inactive)	7.71 µM (inactive)	12.3 µM (inactive)	14.9 µM (inactive)	1.78 µM (inactive)	11.7 µM (inactive)	12.7 µM (inactive)	13.8 µM (inactive)	5.71 µM (inactive)	–	–	–	–
O=c1oc2c(O)c(O)c(O)c3c(=O)oc4c(O)c(O)cc1c4c23 [FLAVELLAGIC ACID]	83 µM (inactive)	71.4 µM (inactive)	36.6 µM (inactive)	> 100 µM (inactive)	> 100 µM (inactive)	> 100 µM (inactive)	> 100 µM (inactive)	> 100 µM (inactive)	89.9 µM (inactive)	> 100 µM (inactive)	> 100 µM (inactive)	> 100 µM (inactive)	> 100 µM (inactive)	> 100 µM (inactive)	> 100 µM (inactive)	46.1 µM (inactive)	> 100 µM	–	–	–
